The results in this text go back to ChEMBL document CHEMBL5236584, “Design and synthesis of boron-containing ALK inhibitor with favorable in vivo efficacy” (Bioorg Med Chem, 2022).

For data set [1], the system named is NCI-H2228. Briefly: cells. The note with it: Homo sapiens, NCI-H2228, 72 h.
Description: Antiproliferative activity against human NCI-H2228 cells assessed as reduction in cell viability measured after 72 hrs by CCK8 assay
The nature of data set [2]: Toxicity in BALB/c nu/nu mouse xenografted with human NCI-H2228 cells at 50 mg/kg, po qd for 23 days. In kind it is organism-based. The note with it: in vivo, 552 h, time 23 day. For orientation: A xenograft is tissue or cells of one species grown in another, often human tumour cells in immunodeficient mice.
The nature of data set [3]: Toxicity in BALB/c nu/nu mouse xenografted with human NCI-H2228 cells assessed as body weight loss at 50 mg/kg, po qd for 23 days. The data set is classed as organism-based. The note with it: in vivo, 552 h, time 23 day.
The nature of data set [4]: AUC (0 to t) in human NCI-H2228 cells xenografted BALB/c nu/nu mouse plasma at 50 mg/kg, po qd for 23 days by UPLC-MS/MS analysis. Further details: time 23 day, dose 50 mg/kg, route po. The data set is classed as ADME, organism-based.
Data set [5] can be described thus: Tmax in human NCI-H2228 cells xenografted BALB/c nu/nu mouse plasma at 50 mg/kg, po qd for 23 days by UPLC-MS/MS analysis. In kind it is ADME, organism-based. The settings on record: time 23 day.
Data set [6] in a line: Cmax in human NCI-H2228 cells xenografted BALB/c nu/nu mouse plasma at 50 mg/kg, po qd for 23 days by UPLC-MS/MS analysis. In kind it is ADME, organism-based. Further details: time 23 day, dose 50 mg/kg, route po.
Data set [7] is described as follows: Drug uptake in tumor of BALB/c nu/nu mouse xenografted with human NCI-H2228 cells at 50 mg/kg, po qd for 23 days and measured at 6 hrs post-last drug dosage by UPLC-MS/MS analysis. The note with it: time 23 day, read-out: Drug uptake. In kind it is ADME, organism-based, Neoplasm.
Data set [8] is described as follows: in vitro. The settings on record: human, liver microsomes. (In general: Liver microsomes are vesicles of endoplasmic reticulum, rich in cytochrome P450 enzymes.)
Description: Half life in human liver microsomes at 1 uM preincubated for 5 mins followed by NADPH addition and measured for 60 mins by LC-MS/MS analysis
The nature of data set [9]: in vitro. The settings on record: human, liver microsomes. This is another data set of the same source.
Description: Intrinsic clearance in human liver microsomes at 1 uM preincubated for 5 mins followed by NADPH addition and measured for 60 mins by LC-MS/MS analysis
Data set [10] in a line: in vitro. The note with it: human, liver microsomes. The source holds these as a separate data set.
Description: Metabolic stability of the compound in human liver microsomes assessed as parent compound remaining at 1 uM preincubated for 5 mins followed by NADPH addition and measured after 60 mins by LC-MS/MS analysis
Data set [11] is described as follows: in vitro. The settings on record: mouse, liver microsomes.
Description: Half life in mouse liver microsomes at 1 uM preincubated for 5 mins followed by NADPH addition and measured for 60 mins by LC-MS/MS analysis
Data set [12] is described as follows: in vitro. The settings on record: mouse, liver microsomes. The source holds these as a separate data set.
Description: Intrinsic clearance in mouse liver microsomes at 1 uM preincubated for 5 mins followed by NADPH addition and measured for 60 mins by LC-MS/MS analysis
The nature of data set [13]: in vitro. The settings on record: mouse, liver microsomes. This is another data set of the same source.
Description: Metabolic stability of the compound in mouse liver microsomes assessed as parent compound remaining at 1 uM preincubated for 5 mins followed by NADPH addition and measured after 60 mins by LC-MS/MS analysis
Data set [14] concerns NCI-H2228. Briefly: animal or person. The settings on record: Mus musculus, NCI-H2228, po, 552 h, read-out: TGI.

As usually defined, the IC50 is the midpoint of a concentration-inhibition curve. High values mean a need for much substance, low ones inhibition by little substance. For orientation: AUC(0-t) means exposure summed from dosing to a finite time, without extrapolation to infinity. A lower AUC(0-t) goes with less exposure. As usually defined, the Tmax is the time at which the peak concentration occurs. The term Cmax denotes the maximum level reached in the sampled fluid or tissue. Broadly, the half-life is how long it takes for the measured level to halve. High values mean slow decline, low ones rapid decline. By microsomal CLint is commonly meant the rate of metabolic loss divided by the concentration. Read a low microsomal CLint as greater metabolic stability. In general, fraction remaining refers to the share of the starting amount still present when the sample was taken.

Take `COc1cc(N2CCC(N(C)C)CC2)ccc1Nc1ncc(Cl)c(Nc2cccc3c2B(O)OC3)n1`: the IC50 with NCI-H2228 [1] amounted to 624 nM.
For `Cc1cc(Nc2ncc(Cl)c(Nc3cccc4c3B(O)OC4)n2)c(OC(C)C)cc1C1CCNCC1`, the half-inhibitory concentration (IC50) in the data set with NCI-H2228 [1] amounted to 617 nM. This IC50 and that of the molecule before are within 1.5-fold of each other.
The same measure, in the same setting: the value for `Cc1cc(Nc2ncc(Cl)c(Nc3ccc4c(c3)B(O)OC4)n2)c(OC(C)C)cc1C1CCNCC1` was 2550 nM; that for `COc1cc(N2CCC(N3CCN(C)CC3)CC2)ccc1Nc1ncc(Cl)c(Nc2ccc3c(c2)B(O)OC3)n1` was 1130 nM.
Still for that read-out and setting: for `COc1cc(N2CCC(N3CCN(C)CC3)CC2)ccc1Nc1ncc(Cl)c(Nc2cccc3c2B(O)OC3)n1` the value was 699 nM.
As for `COc1cc(N2CCC(N(C)C)CC2)ccc1Nc1ncc(Cl)c(Nc2ccc3c(c2)B(O)OC3)n1`, the Activity entry in [2] and in data set [3] was “Non-Toxic” in each case. The same molecule displayed an area under the curve AUC(0-t) at 552 h in data set [4] of 15400 ng·h/mL. The Tmax in data set [5] is 3.6 h. Besides, the Cmax in data set [6] turned out to be 3200 ng/mL. Also, the concentration at 552 h in data set [7] turned out to be 1200 ng/g. The molecule further returned an IC50 in the data set with NCI-H2228 [1] of 520 nM. Moreover, the figures for the half-life at 1 h, 1 µM in the data set “in vitro [8]” and in “in vitro [11]” were 3.97 h and 0.633 h, respectively. Moreover, the intrinsic metabolic clearance (microsomal CLint) at 1 h, 1 µM in “in vitro [9]” worked out at 5.8 µL/min/mg; in the data set “in vitro [12]”, 36.5 µL/min/mg. Further, the amount remaining at 1 h, 1 µM in the data set “in vitro [10]” is 82.6%; in “in vitro [13]” it was 32.8%. Moreover, in the data set on NCI-H2228 [14], the inhibition in vivo at 50 mg/kg turned out to be 52%.
Consider `COc1cc(N2CCN(C)CC2)ccc1Nc1ncc(Cl)c(Nc2ccc3c(c2)B(O)OC3)n1`, for which half-maximal inhibition with NCI-H2228 [1] (IC50) required 825 nM. Besides, the half-life at 1 h, 1 µM in “in vitro [8]” came to 2.97 h; in “in vitro [11]”, 0.725 h. Also, the microsomal CLint at 1 h, 1 µM is 7.8 µL/min/mg in “in vitro [9]” and 31.9 µL/min/mg in “in vitro [12]”. The values for the share remaining at 1 h, 1 µM in the data set “in vitro [10]” and in the data set “in vitro [13]” were 77.8% and 37.4%, respectively.
